In patent US9066518B2, “Heterocyclic compounds as pesticides” (Bayer CropScience AG, priority 2009, dated 2015):

Columns and labels:
[1] = test system: green peach aphid (Myzus persicae); experiment: Myzus test (spray treatment); type: in vivo; conditions: foliar, 144 h, after 6 days, Chinese cabbage leaf discs, read-out: activity (effect in %, aphids killed); for pest or weed control at 500 g/ha: application rate 500 g/ha
Experimental: Solvents: 78 parts by weight of acetone
• 1.5 parts by weight of dimethylformamide Emulsifier 0.5 part by weight of alkylaryl polyglycol ether
To produce a suitable preparation of active compound, 1 part by weight of active compound is mixed with the stated amounts of solvents and emulsifier, and the concentrate is diluted with emulsifier-containing water to the desired concentration. Discs of leaves of Chinese cabbage (Brassica pekinensis) which are infested by all stages of the green peach aphid (Myzus persicae) are sprayed with an active compound preparation of the desired concentration.
After 6 days, the effect in % is determined. 100% means that all aphids have been killed; 0% means that none of the aphids has been killed.

[2] = logP determination (neutral / HCOOH); conditions: for chromatographic logP: HCOOH (formic acid)

Row | chromatographic logP ([2]; logP (HCOOH), HCOOH) | logP ([2]; logP (neutral), neutral) | logP (HCOOH) ([2]; HCOOH) | logP ([2]; HCOOH, logP (HCOOH)) | SMILES | pest or weed control at 500 g/ha [1] [%] | pest or weed control at 100 g/ha ([1]; application rate 100 g/ha) [%]
1 | 1.33 | – | – | – | c1cnc(-n2ccc(-c3cnn(-c4cccnc4)c3)n2)nc1 [Example 33] | 100 | –
2 | 2.23 | – | – | – | FC(F)(F)c1ccnc(-c2cnn(-c3cccnc3)c2)n1 [Example 35] | 80 | –
3 | 1.5 | – | – | – | c1cncc(-n2cc(-c3cccc(C4OCCO4)n3)cn2)c1 [Example 36] | 100 | –
4 | 2.37 | – | – | – | Ic1cncc(-n2cc(-c3cccc(-c4ncccn4)n3)cn2)c1 [Example 37] | 100 | –
5 | 2.12 | – | – | – | COc1cccc(-c2cnn(-c3cccnc3)c2)n1 [Example 38] | 100 | –
6 | 0.39 | – | – | – | c1cncc(-c2cnn(-c3cccnc3)c2)c1 [Example 39] | 100 | –
7 | 2.04 | – | – | – | CC(F)(F)c1ccc(-c2cnn(-c3cccnc3)c2)nc1 [Example 40] | 90 | –
8 | 1.81 | – | – | – | Clc1cccnc1-n1ccc(-c2cnn(-c3cccnc3)c2)n1 [Example 42] | 100 | –
9 | 3.22 | – | – | – | FC(F)(F)c1ccc(-n2ccc(-c3cnn(-c4cccnc4)c3)n2)nc1 [Example 43] | 90 | –
10 | 1.56 | – | – | – | COc1cc(OC)nc(-c2nccc(-c3cnn(-c4cccnc4)c3)n2)n1 [Example 44] | 100 | –
11 | 1.75 | – | – | – | COC(OC)c1cccc(-c2cnn(-c3cccnc3)c2)n1 [Example 45] | 100 | –
12 | 0.86 | – | – | – | c1cnc(-c2nccc(-c3cnn(-c4cccnc4)c3)n2)nc1 [Example 46] | 100 | –
13 | 1.55 | – | – | – | c1ccc(-c2csc(-c3cnn(-c4cccnc4)c3)n2)nc1 [Example 47] | 100 | –
14 | 1.52 | – | – | – | FC(F)CNc1cccc(-c2cnn(-c3cccnc3)c2)n1 [Example 48] | 100 | –
15 | – | 1.69 | – | – | COCC1(c2cccc(-c3cnn(-c4cccnc4)c3)n2)OCCCO1 [Example 49] | 100 | –
16 | 2.98 | – | – | – | FC(F)(F)c1ccc(-c2cnn(-c3cccnc3)c2)cc1 [Example 50] | 90 | –
17 | 2.71 | – | – | – | Clc1ccc(-c2cnn(-c3cccnc3)c2)cc1 [Example 51] | 90 | –
18 | 1.63 | – | – | – | c1cncc(-n2cc(-c3cccc(-n4nccn4)n3)cn2)c1 [Example 54] | 100 | –
19 | 1.4 | – | – | – | c1cncc(-n2cc(-c3cccc(C4=NOCCO4)n3)cn2)c1 [Example 55] | – | 100
20 | 1.31 | – | – | – | CS(=O)(=O)c1cccc(-c2cnn(-c3cccnc3)c2)n1 [Example 56] | 100 | –
21 | 2.12 | – | – | – | O=C(NCC(F)(F)F)c1cccc(-c2cnn(-c3cccnc3)c2)n1 [Example 57] | 100 | –

Row | chromatographic logP ([2]; logP (HCOOH), HCOOH) | logP ([2]; logP (neutral), neutral) | logP (HCOOH) ([2]; HCOOH) | logP ([2]; HCOOH, logP (HCOOH)) | SMILES | pest or weed control at 500 g/ha [1] [%] | pest or weed control at 100 g/ha ([1]; application rate 100 g/ha) [%]
22 | 1.54 | 1.68 | – | – | CN1CCOC(c2cccc(-c3cnn(-c4cccnc4)c3)n2)=N1 [Example 58] | 100 | –
23 | 3.1 | 3.14 | – | – | Fc1cncc(-n2cc(-c3cccc(C(F)(F)F)n3)cn2)c1 [Example 59] | 100 | –
24 | 1.97 | 2.12 | – | – | c1cncc(-n2cc(-c3cccc(C4OCC5(CC5)CO4)n3)cn2)c1 [Example 60] | 100 | –
25 | 1.68 | – | – | – | c1cncc(-n2cc(-c3cccc(-n4ccnn4)n3)cn2)c1 [Example 61] | 90 | –
26 | 2.16 | – | – | – | c1cncc(-n2cc(-c3cccc(-c4noc(C5CC5)n4)n3)cn2)c1 [Example 62] | 100 | –
27 | 2.02 | – | – | – | FC(F)c1cccc(-c2cnn(-c3cccnc3)c2)n1 [Example 63] | 100 | –
28 | 1.14 | – | – | – | c1cncc(-n2cc(-c3cccc(-c4nc[nH]n4)n3)cn2)c1 [Example 64] | 100 | –
29 | 3.22 | – | – | – | ClC1(c2cccc(-c3cnn(-c4cccnc4)c3)n2)CC1 [Example 65] | 90 | –
30 | – | 3.22 | – | – | CC(C)C(F)(F)c1cccc(-c2cnn(-c3cccnc3)c2)n1 [Example 66] | 100 | –
31 | – | 2.84 | – | – | CC(C)C(=O)c1cccc(-c2cnn(-c3cccnc3)c2)n1 [Example 67] | 100 | –
32 | 1.51 | 1.56 | – | – | c1cc(-c2cnn(-c3cncnc3)c2)nc(C2OCCCO2)c1 [Example 68] | 100 | –
33 | 1.78 | – | – | – | CC1(c2cccc(-c3cnn(-c4cccnc4)c3)n2)OCCCO1 [Example 69] | 100 | –
34 | 1.66 | – | – | – | Cc1nc(-c2cccc(-c3cnn(-c4cccnc4)c3)n2)no1 [Example 70] | 100 | –
35 | 2.37 | – | – | – | CC1CC(C)OC(c2cccc(-c3cnn(-c4cccnc4)c3)n2)O1 (centres unmarked) [Example 71] | 100 | –
36 | 2.13 | – | 2.09 | – | CC1OC(c2cccc(-c3cnn(-c4cccnc4)c3)n2)OC1C (centres unmarked) [Example 72] | 100 | –
37 | 2.12 | 2.13 | – | – | Fc1cncc(-n2cc(-c3cccc(C4OCCCO4)n3)cn2)c1 [Example 73] | 100 | –
38 | 2.77 | – | – | – | FC(F)(F)c1nc(-c2cccc(-c3cnn(-c4cccnc4)c3)n2)no1 [Example 74] | 100 | –
39 | 1.9 | – | – | – | C=C1COC(c2cccc(-c3cnn(-c4cccnc4)c3)n2)OC1 [Example 75] | 100 | –
40 | 1.57 | 1.69 | – | – | c1cncc(-n2cc(-c3cccc(-c4ncco4)n3)cn2)c1 [Example 76] | 100 | –
41 | 2.51 | – | – | – | Cc1ccn(-c2cccc(-c3cnn(-c4cccnc4)c3)n2)n1 [Example 77] | 100 | –
42 | 1.49 | – | – | – | CC(=O)NC(NO)c1cccc(-c2cnn(-c3cccnc3)c2)n1 (centres unmarked) [Example 78] | 100 | –

Row | chromatographic logP ([2]; logP (HCOOH), HCOOH) | logP ([2]; logP (neutral), neutral) | logP (HCOOH) ([2]; HCOOH) | logP ([2]; HCOOH, logP (HCOOH)) | SMILES | pest or weed control at 500 g/ha [1] [%] | pest or weed control at 100 g/ha ([1]; application rate 100 g/ha) [%]
43 | 2.59 | – | – | – | Cc1cnn(-c2cccc(-c3cnn(-c4cccnc4)c3)n2)c1 [Example 79] | 100 | –
44 | 2.23 | – | – | – | CCOc1cc(OCC)nc(-c2nccc(-c3cnn(-c4cccnc4)c3)n2)n1 [Example 82] | 100 | –
45 | 1.51 | – | – | – | CN(C)C(=O)c1nc(-c2cnn(-c3cccnc3)c2)cs1 [Example 83] | 100 | –
46 | 0.9 | 1.45 | – | – | c1cncc(-n2cc(-c3cccc(C4=NCCO4)n3)cn2)c1 [Example 84] | 100 | –
47 | – | – | – | 1.66 | COCC(=O)c1cccc(-c2cnn(-c3cccnc3)c2)n1 [Example 85, 2-Methoxy-1-[6-(1-pyridin-3-yl-1H-pyrazol-4-yl)pyridin-2-yl]ethanone] | 100 | –
48 | 0.29 | 1.3 | – | – | Nc1cccc(-c2cnn(-c3cccnc3)c2)n1 [Example 86] | 100 | –
49 | 1.53 | 1.69 | – | – | O=C(NCC(F)(F)F)c1ccc(-c2cnn(-c3cccnc3)c2)nc1 [Example 87] | 90 | –
50 | 1.91 | – | – | – | N#Cc1cncc(-n2cc(-c3cccc(-c4ncccn4)n3)cn2)c1 [Example 88] | 100 | –
51 | 1.37 | – | – | – | O=c1ccccn1-c1cccc(-c2cnn(-c3cccnc3)c2)n1 [Example 89] | 100 | –
52 | 2.37 | 2.53 | – | – | c1cncc(-n2cc(-c3cccc(C4OCC5(CCC5)O4)n3)cn2)c1 (centres unmarked) [Example 90] | 100 | –
53 | 0.84 | – | – | – | COC(=N)c1cccc(-c2cnn(-c3cccnc3)c2)n1 [Example 91] | 100 | –
54 | – | 1.98 | – | – | COCC(F)c1cccc(-c2cnn(-c3cccnc3)c2)n1 (centres unmarked) [Example 92] | 90 | –
55 | 1.16 | – | – | – | c1cnc(-c2ccnn2-c2cnn(-c3cccnc3)c2)nc1 [Example 93] | 100 | –
56 | 1.31 | – | – | – | CC(=O)Nc1cccc(-c2cnn(-c3cccnc3)c2)n1 [Example 94] | 100 | –
57 | 1.32 | – | – | – | c1cncc(-n2cc(-c3nccs3)cn2)c1 [Example 95] | 90 | –
58 | 1.36 | 0.32 | – | – | c1cncc(-n2cc(-c3cccc(-c4nnn[nH]4)n3)cn2)c1 [Example 96] | 90 | –
59 | 0.95 | 1.2 | – | – | N#CCNC(=O)c1ccc(-c2cnn(-c3cccnc3)c2)nc1 [Example 97] | 90 | –
60 | 0.79 | – | 0.78 | – | c1cncc(-n2cc(-c3cc[nH]n3)cn2)c1 [Example 98, 1′-(Pyridin-3-yl)-1H,1′H-3,4′-bipyrazole] | 100 | –
61 | 1.83 | 1.96 | – | – | CCOC(=O)c1cccc(-c2cnn(-c3cccnc3)c2)n1 [Example 99] | 100 | –
